Laboratory results reported in the supplement of paper PMC10307832.

Key:
Experiment in all cases: relative viability (nuclei count vs DMSO), 5 days (fraction); higher = more cells survive
[1] = compound: CC1CC(=O)N(C2=CN=C(N=C2N1C3CCCC3)NC4=C(C=C(C=C4)C(=O)NC5CCN(CC5)C)OC)C [NPK76-II-72-1] + COc1cccc2cc(-c3nc([C@H]4CC[C@H](C(=O)O)CC4)n4ncnc(N)c34)[nH]c12 [OSI-027] (partner 0.5 µM)
Summary of the method: (§1)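 Relative viability equals treated-well nuclei counts divided by vehicle-well nuclei counts. Counts came from 4× images of lung cancer cell lines grown in 1536-well plates for 5 days after pin-tool dosing on the day after seeding. Dosing used one drug alone or a fixed anchor-drug dose plus five library-drug doses (not always all listed) in √10 steps, and values are medians of duplicate plates.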

[2] = compound: CC1CC(=O)N(C2=CN=C(N=C2N1C3CCCC3)NC4=C(C=C(C=C4)C(=O)NC5CCN(CC5)C)OC)C [NPK76-II-72-1] + CS(=O)(=O)N1CCN(Cc2cc3nc(-c4cccc5[nH]ncc45)nc(N4CCOCC4)c3s2)CC1 [Pictilisib] (partner 1 µM)
Summary of the method: as §1

[3] = compound: CC[C@@H]1C(=O)N(C)c2cnc(Nc3ccc(C(=O)NC4CCN(C)CC4)cc3OC)nc2N1C1CCCC1 [BI-2536] + CS(=O)(=O)CCNCc1ccc(-c2ccc3ncnc(Nc4ccc(OCc5cccc(F)c5)c(Cl)c4)c3c2)o1 [Lapatinib] (partner 2 µM)
Summary of the method: as §1

[4] = compound: CC[C@@H]1C(=O)N(C)c2cnc(Nc3ccc(C(=O)NC4CCN(C)CC4)cc3OC)nc2N1C1CCCC1 [BI-2536] + Cc1nc(Nc2ncc(C(=O)Nc3c(C)cccc3Cl)s2)cc(N2CCN(CCO)CC2)n1 [Dasatinib] (partner 0.075 µM)
Summary of the method: as §1

Row | Cell Line | relative viability ([1]; first compound 0.01 µM) | relative viability ([1]; first compound 0.03162 µM) | relative viability ([1]; first compound 0.1 µM) | relative viability ([1]; first compound 0.3162 µM) | relative viability ([1]; first compound 1 µM) | relative viability ([2]; first compound 0.01 µM) | relative viability ([2]; first compound 0.03162 µM) | relative viability ([2]; first compound 0.1 µM) | relative viability ([2]; first compound 0.3162 µM) | relative viability ([2]; first compound 1 µM) | relative viability ([3]; first compound 0.01 µM) | relative viability ([3]; first compound 0.03162 µM) | relative viability ([3]; first compound 0.1 µM) | relative viability ([3]; first compound 0.3162 µM) | relative viability ([3]; first compound 1 µM) | relative viability ([4]; first compound 0.01 µM) | relative viability ([4]; first compound 0.03162 µM) | relative viability ([4]; first compound 0.1 µM) | relative viability ([4]; first compound 0.3162 µM) | relative viability ([4]; first compound 1 µM)
1 | NCI-H1944 | 0.422 | 0.44 | 0.364 | 0.369 | 0.541 | 0.351 | 0.352 | 0.318 | 0.338 | 0.35 | 0.848 | 0.832 | 0.754 | 0.678 | 0.161 | 0.218 | 0.232 | 0.177 | 0.126 | 0.132
2 | NCI-H1793 | 0.268 | 0.322 | 0.258 | 0.27 | 0.311 | 0.309 | 0.472 | 0.483 | 0.332 | 0.257 | 0.581 | 0.507 | 0.256 |  | 0.193 | 0.401 | 0.356 | 0.129 | 0.113 | 0.163
3 | NCI-H520 | 0.358 | 0.265 | 0.238 | 0.257 | 0.305 | 0.234 | 0.267 | 0.374 | 0.267 | 0.291 | 0.686 | 0.471 | 0.154 | 0.193 | 0.164 | 0.164 | 0.204 | 0.194 | 0.153 | 0.13
4 | NCI-H460 | 0.706 | 0.79 | 0.75 | 0.628 | 0.775 | 0.238 | 0.297 | 0.367 | 0.34 | 0.365 | 1.04 | 0.257 | 0.206 | 0.0105 | 0.011 | 0.483 | 0.635 | 0.368 | 0.0145 | 0.0151
5 | EKVX | 0.66 | 0.783 | 0.501 | 0.649 | 0.821 | 0.418 | 0.437 | 0.437 | 0.388 | 0.508 | 0.199 | 0.205 | 0.205 | 0.142 | 0.117 | 0.742 | 0.653 | 0.586 | 0.399 | 0.174
6 | NCI-H358 | 0.703 | 0.812 | 1 |  | 0.916 | 0.352 | 0.364 | 0.334 | 0.3 | 0.332 | 0.454 | 0.312 | 0.174 | 0.161 | 0.182 | 0.157 | 0.171 | 0.0774 | 0.0602 | 0.0816
7 | EPLC-272H | 0.307 |  | 0.287 | 0.235 | 0.305 | 0.31 | 0.31 | 0.32 | 0.296 | 0.381 | 0.894 | 0.828 |  | 0.483 | 0.11 | 0.327 | 0.357 | 0.0724 | 0.0766 | 0.0856
8 | NCI-H1563 | 0.698 | 0.804 | 0.739 | 0.749 | 0.778 | 0.658 | 0.66 | 0.602 | 0.599 | 0.665 | 0.906 | 0.938 | 0.832 | 0.568 | 0.638 | 0.47 | 0.498 | 0.449 | 0.361 | 0.331
9 | NCI-H1395 | 0.633 | 0.617 | 0.677 | 0.62 | 0.695 | 0.615 | 0.645 | 0.627 | 0.632 | 0.628 | 0.868 | 0.905 | 0.415 | 0.353 | 0.733 | 0.413 | 0.398 | 0.315 | 0.297 | 0.328
10 | NCI-H2126 | 0.716 | 0.734 | 0.678 | 0.738 | 0.796 | 0.508 | 0.517 | 0.457 | 0.507 | 0.476 | 0.782 | 0.689 | 0.725 | 0.619 | 0.267 | 0.659 | 0.58 | 0.294 | 0.26 | 0.224
11 | LXF-289 | 0.704 | 0.849 | 0.684 | 0.763 | 0.783 | 0.791 | 0.819 | 0.796 | 0.772 | 0.776 | 0.889 | 0.839 | 0.443 | 0.0583 | 0.0798 | 0.274 | 0.235 | 0.0786 | 0.047 | 0.0368
12 | NCI-H2009 | 0.659 | 0.671 | 0.596 | 0.547 | 0.778 | 0.812 | 0.974 | 0.897 | 0.781 | 0.886 | 0.869 | 0.64 | 0.101 | 0.158 | 0.0981 | 0.256 | 0.248 | 0.169 | 0.137 | 0.0971
13 | NCI-H2405 | 0.64 | 0.672 | 0.633 | 0.627 | 0.67 | 0.485 | 0.467 | 0.479 | 0.453 | 0.452 | 1.01 | 0.97 | 0.301 | 0.146 | 0.448 | 0.19 | 0.214 | 0.178 | 0.102 | 0.177
14 | NCI-H1755 | 0.763 | 0.776 | 0.749 | 0.717 | 0.768 | 0.369 | 0.462 | 0.397 | 0.432 | 0.422 | 0.968 | 0.982 | 0.498 | 0.204 | 0.272 | 0.452 | 0.391 | 0.271 | 0.195 | 0.198
15 | HCC-78 | 0.511 | 0.467 | 0.356 | 0.496 | 0.404 |  | 0.233 | 0.207 |  | 0.182 | 0.403 | 0.885 | 0.814 | 0.39 | 0.18 | 0.454 | 0.374 | 0.416 | 0.25 | 0.17
16 | LOU-NH91 | 0.667 | 0.704 | 0.713 | 0.654 | 0.813 | 0.501 | 0.507 | 0.46 | 0.502 | 0.597 | 0.794 | 0.756 | 0.663 | 0.284 | 0.291 | 0.599 | 0.539 | 0.52 | 0.289 | 0.256
